Source: patent US10011818B2, “Method for in vitro oocyte maturation” (CHINA AGRICULTURE UNIVERSITY, priority 2012, dated 2018)
Like-named read-outs stand apart in the source and are kept apart here.

Assays:
[1] = tested on: oocyte nuclear maturation; settings: cited from earlier work
[2] = tested on: bovine oocytes; test: Effect of CNP pretreatment (pre-IVM) on meiotic resumption of bovine oocytes, nuclear morphology by DAPI staining; assay type: cell-based; settings: for No. of GV oocytes / No. of GVBD oocytes / GV oocytes (%) / GVBD oocytes (%): pre-IVM 6 hours; for GV oocytes (%) / GVBD oocytes (%): mean ± SEM
Description: (§1) Bovine ovaries were obtained from a local slaughterhouse, transported at 30-35° C. to the laboratory within 1 hour, and washed in warmed normal saline containing 2% Penicillin G-Streptomycin. Ovarian antral follicles (3-8 mm) were aspirated using an 18-gauge needle. cumulus-oocyte complexes (COCs) with homogenous oocyte cytoplasm and complete, compacted, and multilayered CCs (Grade-1) or complete but fewer than three layers of CCs (Grade-2), were collected using micropipettes.
(§2) Grade-1 and -2 COCs were washed in the washing buffer (HEPES-TCM199) for three times, and then washed in pre-IVM medium (TCM199 containing 3 mg/ml BSA and CNP at different concentrations (50, 100, 200 and 400 nM) for two times. After that, COCs were transfer into pre-IVM medium (pre-warmed for 2 hours) in 4-well plate (500 μl pre-IVM medium and 50 COCs in each well) and cultured for 6 hours at 38.5° C., in humidified air with 5% CO2. After pre-IVM phase, a proportion of COCs are digested with hyaluronidase to remove cumulus cells. To determine the most preferable concentration of CNP for pre-VIM, meiosis kinetics of oocytes was evaluated according to nuclear morphology using DAPI staining under a fluorescence microscope. The oocytes without pre-IVM phase are used as control.

[3] = tested on: bovine oocytes; test: Effect of CNP pre-IVM and extended IVM on developmental rate of bovine oocytes after IVF (cleavage, blastocyst); assay type: cell-based; settings: for No. of cleavage / cleavage (%) / No. of blastocysts / blastocysts (%): CNP 200 nM pre-IVM 6 h; for No. of cleavage: day 2; for cleavage (%): day 2, mean ± SEM; for No. of blastocysts: day 7; for blastocysts (%): day 7, mean ± SEM
Description: as §1, §2
After cultured in pre-IVM medium containing 200 nM CNP, COCs are further cultured in extended-IVM medium (TCM199 supplemented with 10 μg/ml FSH, […], 1 μg/ml E2, 10 ng/ml EGF, 10% FBS) at 38.5° C., in humidified air with 5% CO2. To determine the most preferable duration for extended-IVM, COCs were cultured for 24, 26 or 28 hours. In addition, COCs without pre-IVM phase, are also cultured in […] for 24, 26 or 28 hours as controls.
After maturation, the COCs were fertilized in BO medium for 8 hours at 39° C. under 5% CO2 in a humidified atmosphere. After fertilization, the presumptive zygotes were transferred to 100 μl CR1 culture medium droplets (15 zygotes in each droplets) at 39° C. in a humidified atmosphere. The culture medium was changed every 2 days during the culture period. The percentage cleavage and rates of subsequent embryo development to the blastocyst stage were recorded on day 2 and 7, respectively.

[4] = tested on: bovine oocytes and subsequent preimplantation embryos
[5] = tested on: oocyte meiotic arrest; settings: mice, Zhang et al., 2010; cited from earlier work
[6] = tested on: oocyte maturation and embryonic development; settings: CNP pretreatment 100 nM alone, without extended IVM; cited from earlier work
[7] = literature, chemical meiotic inhibitors

Compound: CN(C)c1ncnc2nc[nH]c12 [6-DMAP]
- inhibitory effect on nuclear maturation [1, 7]: evident inhibitory effect

Compound: O=C1CCCO1 [butyrolactone]
- inhibitory effect on nuclear maturation [1, 7]: evident inhibitory effect

Compound: C[C@@H]1C[C@@H]([C@H](O)CC2CC(=O)NC(=O)C2)C(=O)[C@@H](C)C1 [cycloheximide]
- inhibitory effect on nuclear maturation [1, 7]: evident inhibitory effect

Compound: CC[C@H](CO)Nc1nc(NCc2ccccc2)c2ncn(C(C)C)c2n1 [roscovitine]
- inhibitory effect on nuclear maturation [1]: evident inhibitory effect

Compound: C-type natriuretic peptide [CNP]
- No. of GV oocytes ([2]; CNP 50 nM): 64
- No. of GVBD oocytes ([2]; CNP 50 nM): 37
- GV oocytes (%) ([2]; CNP 50 nM): 63.4 ± 3.1%
- GVBD oocytes (%) ([2]; CNP 50 nM): 21.3 ± 3.1%
- No. of GV oocytes ([2]; CNP 100 nM): 68
- No. of GVBD oocytes ([2]; CNP 100 nM): 30
- GV oocytes (%) ([2]; CNP 100 nM): 69.4 ± 2.6%
- GVBD oocytes (%) ([2]; CNP 100 nM): 30.6 ± 2.6%
- rate of oocytes maintaining at GV stage versus control ([2]; CNP 200 nM, P<0.01): significant higher
- No. of GV oocytes ([2]; CNP 200 nM): 79
- No. of GVBD oocytes ([2]; CNP 200 nM): 18
- GV oocytes (%) ([2]; CNP 200 nM): 81.4 ± 2.1%
- GVBD oocytes (%) ([2]; CNP 200 nM): 19.6 ± 2.1%
- No. of GV oocytes ([2]; CNP 400 nM): 79
- No. of GVBD oocytes ([2]; CNP 400 nM): 27
- GV oocytes (%) ([2]; CNP 400 nM): 74.5 ± 2.8%
- GVBD oocytes (%) ([2]; CNP 400 nM): 25.5 ± 2.8%
- inhibitory effect on meiotic resumption outside the range ([2]; concentration higher than 400 nM or lower than 100 nM): no evident inhibitory effect
- concentration of maximal inhibitory effect on meiotic resumption ([2]; dose-dependent pattern, bovine oocytes): 200 nM
- concentration range with significant inhibition of oocyte meiotic resumption ([2]; pre-IVM pretreatment, bovine oocytes): 100 to 400 nM
- No. of cleavage ([3]; extended-IVM 24 h, after IVF): 157
- cleavage (%) ([3]; extended-IVM 24 h, after IVF): 81.3 ± 2.7%
- No. of blastocysts ([3]; extended-IVM 24 h, after IVF): 53
- blastocysts (%) ([3]; extended-IVM 24 h, after IVF): 27.5 ± 1.3%
- No. of cleavage ([3]; extended-IVM 26 h, after IVF): 89
- cleavage (%) ([3]; extended-IVM 26 h, after IVF): 87.1 ± 0.75%
- No. of blastocysts ([3]; extended-IVM 26 h, after IVF): 62
- blastocysts (%) ([3]; extended-IVM 26 h, after IVF): 28.6 ± 0.7%
- No. of cleavage ([3]; extended-IVM 28 h, after IVF): 186
- cleavage (%) ([3]; extended-IVM 28 h, after IVF): 88.3 ± 3.0%
- No. of blastocysts ([3]; extended-IVM 28 h, after IVF): 80
- blastocysts (%) ([3]; extended-IVM 28 h, after IVF): 37.4 ± 2.5%
- blastocyst rates ([3]; CNP pre-IVM plus extended IVM (novel method)): significantly enhances blastocyst rates
- cleavage rates versus counterparts without CNP pre-IVM ([3]; CNP pre-treatment followed by extended IVM phase, after IVF): significantly higher
- adverse effect on bovine oocytes and subsequent preimplantation embryos [4]: doesn't show any evident adverse effect
- preferable concentration of CNP for meiotic inhibition [5]: 100 nM
- oocyte maturation and embryonic development result [6]: could not lead to an evidently satisfying results
